pKd: −log10 of the molar value.
Molecular target: METTL21A (Methyltransferase 21A) (Homo sapiens, UniProt Q8WXB1)
Assay: SPR
Assay type: binding

METTL21A (Methyltransferase 21A), sequence (Q8WXB1 whole entry): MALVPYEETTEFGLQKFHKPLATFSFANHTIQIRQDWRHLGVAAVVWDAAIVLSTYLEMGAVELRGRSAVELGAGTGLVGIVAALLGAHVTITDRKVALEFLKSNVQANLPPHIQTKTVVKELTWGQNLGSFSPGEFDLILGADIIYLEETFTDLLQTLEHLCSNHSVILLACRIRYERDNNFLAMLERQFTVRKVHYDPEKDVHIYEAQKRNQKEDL

pKd: 3.91
SMILES: O=c1c(-c2ccc(O[C@@H]3O[C@H](CO)[C@@H](O)[C@H](O)[C@H]3O)cc2)coc2cc(O)cc(O)c12 [Sop, sophoricoside]

Reference: publication PMC12246421 (NPJ Precision Oncology, 2025)
